Our source for the MIC values is DBAASP.

Among the test systems are Escherichia coli; Aeromonas salmonicida; Vibrio anguillarum; Candida parapsilosis; Bacillus subtilis DELTA; Yersinia enterocolitica; Salmonella sp.; Candida albicans PEEC 2; Candida albicans DBFIQ 1.
Assay in all cases: ≥ marks a high value that may be exact or a test limit, other limits are often not marked, values filed in µg/mL are converted to µM
Assay [1] has as its system Staphylococcus aureus ATCC 25923.
Assay [2] deals with Staphylococcus aureus ATCC BAA-1683.
The subject of assay [3] is Salmonella enterica serovar typhimurium MS7953s.
Assay [4] has as its system Pseudomonas aeruginosa Z61.
The subject of assay [5] is Pseudomonas aeruginosa K799.
For assay [6], the system named is Salmonella enterica subsp. enterica serovar Typhimurium ATCC 14028s.
Assay [7] concerns Staphylococcus epidermidis C621.
Assay [8] concerns Escherichia coli DH5alpha.
Assay [9] concerns Zymomonas mobilis ATCC 10988.
Assay [10] concerns Pseudomonas aeruginosa PAO1.
Assay [11] concerns Escherichia coli ATCC 25922.
Assay [12] relates to Salmonella enterica subsp. enterica serovar Enteritidis.
Assay [13] deals with Staphylococcus aureus ATCC 43300.
Assay [14] has as its system Pseudomonas aeruginosa ATCC 27853.
The test system of assay [15] is Staphylococcus aureus ATCC 29213.
The test system of assay [16] is Candida albicans ATCC 10231.
Assay [17] concerns Enterococcus faecium E007.
For assay [18], the system named is Staphylococcus aureus ATCC 29231.
For assay [19], the system named is Acinetobacter baumannii ATCC 7978.
Assay [20] has as its system Candida tropicalis DBFIQ 3.
Assay [21] deals with Escherichia coli ATCC 35218.
The subject of assay [22] is Staphylococcus aureus BSF FBCB1313.
Assay [23] relates to Enterococcus faecalis ATCC 29212.
Assay [24] deals with Cryptococcus neoformans ATCC 32264.

SMILES strings stand for the structures. ≈ marks a conversion by molar mass, not a printed value.

Consider `CC(C)C[C@H](NC(=O)[C@H](CC(C)C)NC(=O)[C@H](CCCN=C(N)N)NC(=O)[C@H](CCCCN)NC(=O)[C@H](CCCCN)NC(=O)[C@@H](N)CCC(=O)O)C(=O)N[C@@H](CCCCN)C(=O)N[C@@H](Cc1c[nH]c2ccccc12)C(=O)N[C@@H](Cc1c[nH]c2ccccc12)C(=O)N[C@@H](CCCN=C(N)N)C(N)=O` [EKKRLLKWWR], for which the MIC (in general, the lowest concentration found to suppress growth) is 86.6 µM (≈ 125 µg/mL) in assay [1], 347 µM (≈ 500 µg/mL) in the assay with Escherichia coli and ≥ 86.6 µM in assay [2].

`CSCC[C@H](NC(=O)[C@@H](NC(=O)[C@H](CCCCN)NC(=O)[C@H](Cc1c[nH]c2ccccc12)NC(=O)[C@H](CC(C)C)NC(=O)[C@H](C)N)[C@@H](C)O)C(=O)N[C@@H](CC(C)C)C(=O)N[C@@H](CCCCN)C(=O)N[C@@H](CCCCN)C(=O)N[C@@H](C)C(=O)N[C@@H](C)C(=O)N[C@@H](Cc1cnc[nH]1)C(=O)N[C@H](C(=O)NCC(=O)N[C@@H](CCCCN)C(=O)N[C@@H](Cc1cnc[nH]1)C(=O)N[C@H](C(=O)NCC(=O)N[C@@H](CCCCN)C(=O)N[C@@H](C)C(=O)N[C@@H](C)C(=O)N[C@@H](CC(C)C)C(=O)N[C@H](C(=O)N[C@@H](Cc1cnc[nH]1)C(=O)N[C@@H](Cc1ccc(O)cc1)C(=O)N[C@@H](CC(C)C)C(=O)N[C@@H](CC(N)=O)C(=O)O)[C@@H](C)O)C(C)C)C(C)C` [ALWKTMLKKAAHVGKHVGKAALTHYLN]: the MIC in [3] turned out to be 0.167 µM (≈ 0.5 µg/mL); in the assay on Aeromonas salmonicida, 0.335 µM (≈ 1 µg/mL); in [4] it was 2.68 µM (≈ 8 µg/mL); in [5] it was 1.34 µM (≈ 4 µg/mL); with Vibrio anguillarum, 1.34 µM (≈ 4 µg/mL); in assay [6] it was 1.34 µM (≈ 4 µg/mL). In addition, the MIC in [7] turned out to be 1.34 µM (≈ 4 µg/mL).

As to `CC[C@H](C)[C@H](NC(=O)[C@H](CCCN=C(N)N)NC(=O)[C@H](CCC(N)=O)NC(=O)[C@H](CC(C)C)NC(=O)[C@@H](NC(=O)[C@H](CCCN=C(N)N)NC(=O)[C@H](CCCCN)NC(=O)[C@H](Cc1ccccc1)NC(C)=O)[C@@H](C)CC)C(=O)N[C@@H](CCCCN)C(=O)N[C@@H](CC(=O)O)C(=O)N[C@@H](Cc1ccccc1)C(=O)N[C@@H](CC(C)C)C(=O)N[C@@H](CCCN=C(N)N)C(N)=O` [FKRILQRIKDFLR], the MIC with Candida parapsilosis was 23.1 µM (≈ 40.9 µg/mL); in assay [8] it was ≥ 57.7 µM; in the assay on Bacillus subtilis DELTA, ≥ 57.7 µM; in [9], 28.8 µM (≈ 51.2 µg/mL); in assay [10] it was 11.5 µM (≈ 20.5 µg/mL).

For the compound `CC[C@H](C)[C@H](NC(=O)[C@H](CCC(N)=O)NC(=O)[C@@H](N)CCCN=C(N)N)C(=O)N[C@@H](Cc1c[nH]c2ccccc12)C(=O)N[C@@H](CCCN=C(N)N)C(=O)N[C@@H](Cc1c[nH]c2ccccc12)C(=O)N[C@@H](Cc1c[nH]c2ccccc12)C(=O)N[C@@H](CCC(N)=O)C(=O)N[C@@H](Cc1c[nH]c2ccccc12)C(N)=O` [RQIWRWWQW], the MIC was > 50 µM in [11]; > 50 µM against Escherichia coli; ≥ 50 µM against Yersinia enterocolitica; ≥ 50 µM in [12]; > 50 µM in assay [13]; > 50 µM in assay [14]. Moreover, the MIC in assay [15] was > 50 µM; in the assay on Salmonella sp., ≥ 50 µM.

With `CC[C@H](C)[C@H](NC(=O)[C@H](CCCCN)NC(=O)[C@H](Cc1c[nH]c2ccccc12)NC(=O)[C@H](Cc1c[nH]c2ccccc12)NC(=O)[C@@H](NC(=O)[C@H](CCCCN)NC(=O)[C@H](Cc1c[nH]c2ccccc12)NC(=O)[C@@H](N)CC(C)C)[C@@H](C)CC)C(=O)N[C@@H](Cc1c[nH]c2ccccc12)C(=O)N[C@@H](CCCN=C(N)N)C(=O)N[C@H](C(=O)N[C@@H](Cc1c[nH]c2ccccc12)C(=O)N[C@@H](CCCCN)C(=O)N[C@@H](CC(N)=O)C(=O)N[C@@H](Cc1c[nH]c2ccccc12)C(=O)N[C@@H](CCCN=C(N)N)C(=O)O)C(C)C` [LWKIWWKIWRVWKNWR], the MIC in assay [16] was 26.8 µM (≈ 64 µg/mL); in assay [17], ≥ 53.7 µM; in assay [18], 3.35 µM (≈ 7.99 µg/mL); in assay [19], ≥ 53.7 µM.

Take `CC(C)C[C@H](NC(=O)[C@H](CCCCN)NC(=O)[C@H](CCCCN)NC(=O)[C@H](Cc1ccccc1)NC(=O)[C@H](CC(C)C)NC(=O)[C@@H](N)CCCCN)C(=O)N[C@@H](Cc1ccccc1)C(=O)N[C@@H](CCCCN)C(N)=O` [KLFKKLFK]: the MIC in assay [1] is 7.6 µM (≈ 7.98 µg/mL); against Candida albicans PEEC 2, ≥ 122 µM; in [20], ≥ 122 µM; in assay [21], 7.6 µM (≈ 7.98 µg/mL); in assay [14] it was 60.9 µM (≈ 64 µg/mL); against Candida albicans DBFIQ 1, ≥ 122 µM. For the same compound, the results for the MIC in assay [22] and in [23] were 30.5 µM (≈ 32 µg/mL) and 15.2 µM (≈ 16 µg/mL), respectively.

For `CC[C@H](C)[C@H](NC(=O)[C@H](CCC(N)=O)NC(=O)[C@@H](N)CCCN=C(N)N)C(=O)N[C@@H](CCCN=C(N)N)C(=O)N[C@@H](CCCN=C(N)N)C(=O)N[C@@H](Cc1c[nH]c2ccccc12)C(=O)N[C@@H](Cc1c[nH]c2ccccc12)C(=O)N[C@@H](CCC(N)=O)C(=O)N[C@@H](Cc1c[nH]c2ccccc12)C(=O)N[C@@H](CCCN=C(N)N)C(=O)N[C@@H](CCCN=C(N)N)C(N)=O` [RQIRRWWQWRR], the MIC in assay [16] was determined as 50 µM (≈ 86.3 µg/mL); in [24], 25 µM (≈ 43.2 µg/mL).
